Data from patent US20090018111A1, “Novel Antimicrobial Medicament” (priority 2004, published 2009).
Like-named read-outs stand apart in the source and are kept apart here.

Tests used:
Assay in all cases: Sensitivity test (agar dilution), clinical isolate
S. marcescens 7138 = format: cell-based, Serratia marcescens
Protocol: (§1) In addition, the antibacterial activities were tested against strains which are comparatively less sensitive to β-lactam compounds, namely clinically isolated 13 strains of Acinetobacter calcoaceticus and Acinetobacter lwoffi, clinically isolated 11 strains of Serratia marcescens, clinically isolated 12 strains of Burkholderia cepacia, and clinically isolated 15 strains of Pseudomonas aeruginosa.
(§2) According to the standard method of Japan Chemotherapeutic Society (Chemotherapy, vol. […], p 76-79 (1981)) the test was carried out using the agar dilution method. After dissolving test samples in distilled water, agar medium containing the test samples was prepared in such a manner that the final concentration became twice serial dilution by pouring serially diluted combination drug solution or a single drug solution into agar medium. As agar medium was used Mueller Hinton Agar medium (MHA). Then, each strain was cultivated over night at 37° C. in an incubator and suspended in buffered saline solution with gelatin (BSG) in the concentration of about 10^6 CFU/ml. The suspension (about 5 μl) containing test strains was inoculated to the medium containing the test samples by Micro Planter.
(§3) Each drug was weighed, and dissolved in distilled water to give a test sample. When the drugs are used in combination, two kinds of solution containing each drug were mixed so as to be various ratio of concentration to give a mixed solution. When the sample is subjected to sensitivity test, this mixed solution was diluted by twice serial dilution method.
(§4) Furthermore, when the drug is solely used, each test sample was used as it is, and diluted by twice serial dilution method from the maximum concentration to the minimum concentration.

S. marcescens 14425 = format: cell-based, Serratia marcescens
Protocol: as §1, §2, §3, §4

S. marcescens 7155 = format: cell-based, Serratia marcescens
Protocol: as §1, §2, §3, §4

S. marcescens 1928513 = format: cell-based, Serratia marcescens
Protocol: as §1, §2, §3, §4

S. marcescens 2054522 = format: cell-based, Serratia marcescens
Protocol: as §1, §2, §3, §4

S. marcescens 14424 = format: cell-based, Serratia marcescens
Protocol: as §1, §2, §3, §4

S. marcescens 14689 = format: cell-based, Serratia marcescens
Protocol: as §1, §2, §3, §4

S. marcescens 14981 = format: cell-based, Serratia marcescens
Protocol: as §1, §2, §3, §4

S. marcescens 1944950 = format: cell-based, Serratia marcescens
Protocol: as §1, §2, §3, §4

S. marcescens 14991 = format: cell-based, Serratia marcescens
Protocol: as §1, §2, §3, §4

S. marcescens 2012884 = format: cell-based, Serratia marcescens
Protocol: as §1, §2, §3, §4

P. aeruginosa 15040 = format: cell-based, Pseudomonas aeruginosa
Protocol: as §1, §2, §3, §4

P. aeruginosa 12790 = format: cell-based, Pseudomonas aeruginosa; settings: read-out: MIC
Protocol: as §1, §2, §3, §4

P. aeruginosa 12789 = format: cell-based, Pseudomonas aeruginosa
Protocol: as §1, §2, §3, §4

B. cepacia 14300 = format: cell-based, Burkholderia cepacia
Protocol: as §1, §2, §3, §4

SMILES: C[C@H]1C=C(c2csc(SC3=C(C(=O)O)N4C(=O)[C@H]([C@@H](C)O)[C@H]4[C@H]3C)n2)CN1 [SM, (4R,5S,6S)-6-[(1R)-1-Hydroxyethyl]-4-methyl-3-({4-[(5S)-5-methyl-2,5-dihydro-1H-pyrrol-3-yl]-1,3-thiazol-2-yl}sulfanyl)-7-oxo-1-azabicyclo[3.2.0]hept-2-ene-2-carboxylic acid]
- MIC (S. marcescens 7138; Serratia marcescens, 7138, Concomitant (ME:SM = 1:1)): 2 µg/mL
- MIC (S. marcescens 7138; Serratia marcescens, 7138, Concomitant (ME:SM = 1:2)): 2 µg/mL
- MIC (S. marcescens 7138; Serratia marcescens, 7138, Concomitant (ME:SM = 1:4)): 2 µg/mL
- MIC (S. marcescens 7138; Serratia marcescens, 7138, Concomitant (ME:SM = 2:1)): 1 µg/mL
- MIC (S. marcescens 7138; Serratia marcescens, 7138, alone): 8 µg/mL
- MIC (S. marcescens 14425; Serratia marcescens, 14425, Concomitant (ME:SM = 1:1)): 0.031 µg/mL
- MIC (S. marcescens 14425; Serratia marcescens, 14425, Concomitant (ME:SM = 1:2)): 0.063 µg/mL
- MIC (S. marcescens 14425; Serratia marcescens, 14425, Concomitant (ME:SM = 1:4)): 0.125 µg/mL
- MIC (S. marcescens 14425; Serratia marcescens, 14425, Concomitant (ME:SM = 2:1)): 0.016 µg/mL
- MIC (S. marcescens 14425; Serratia marcescens, 14425, alone): 2 µg/mL
- MIC (S. marcescens 7155; Serratia marcescens, 7155, Concomitant (ME:SM = 1:1)): 2 µg/mL
- MIC (S. marcescens 7155; Serratia marcescens, 7155, Concomitant (ME:SM = 1:2)): 2 µg/mL
- MIC (S. marcescens 7155; Serratia marcescens, 7155, Concomitant (ME:SM = 1:4)): 2 µg/mL
- MIC (S. marcescens 7155; Serratia marcescens, 7155, Concomitant (ME:SM = 2:1)): 1 µg/mL
- MIC (S. marcescens 7155; Serratia marcescens, 7155, alone): 8 µg/mL
- MIC (S. marcescens 1928513; Serratia marcescens, 1928513, Concomitant (ME:SM = 1:1)): 1 µg/mL
- MIC (S. marcescens 1928513; Serratia marcescens, 1928513, Concomitant (ME:SM = 1:2)): 1 µg/mL
- MIC (S. marcescens 1928513; Serratia marcescens, 1928513, Concomitant (ME:SM = 1:4)): 2 µg/mL
- MIC (S. marcescens 1928513; Serratia marcescens, 1928513, Concomitant (ME:SM = 2:1)): 0.5 µg/mL
- MIC (S. marcescens 1928513; Serratia marcescens, 1928513, alone): 8 µg/mL
- MIC (S. marcescens 2054522; Serratia marcescens, 2054522, Concomitant (ME:SM = 1:1)): 1 µg/mL
- MIC (S. marcescens 2054522; Serratia marcescens, 2054522, Concomitant (ME:SM = 1:2)): 1 µg/mL
- MIC (S. marcescens 2054522; Serratia marcescens, 2054522, Concomitant (ME:SM = 1:4)): 2 µg/mL
- MIC (S. marcescens 2054522; Serratia marcescens, 2054522, Concomitant (ME:SM = 2:1)): 0.5 µg/mL
- MIC (S. marcescens 2054522; Serratia marcescens, 2054522, alone): 8 µg/mL
- MIC (S. marcescens 14424; Serratia marcescens, 14424, Concomitant (ME:SM = 1:1)): 8 µg/mL
- MIC (S. marcescens 14424; Serratia marcescens, 14424, Concomitant (ME:SM = 1:2)): 4 µg/mL
- MIC (S. marcescens 14424; Serratia marcescens, 14424, Concomitant (ME:SM = 1:4)): 8 µg/mL
- MIC (S. marcescens 14424; Serratia marcescens, 14424, Concomitant (ME:SM = 2:1)): 2 µg/mL
- MIC (S. marcescens 14424; Serratia marcescens, 14424, alone): 16 µg/mL
- MIC (S. marcescens 14689; Serratia marcescens, 14689, Concomitant (ME:SM = 1:1)): 2 µg/mL
- MIC (S. marcescens 14689; Serratia marcescens, 14689, Concomitant (ME:SM = 1:2)): 4 µg/mL
- MIC (S. marcescens 14689; Serratia marcescens, 14689, Concomitant (ME:SM = 1:4)): 8 µg/mL
- MIC (S. marcescens 14689; Serratia marcescens, 14689, Concomitant (ME:SM = 2:1)): 2 µg/mL
- MIC (S. marcescens 14689; Serratia marcescens, 14689, alone): 32 µg/mL
- MIC (S. marcescens 14981; Serratia marcescens, 14981, Concomitant (ME:SM = 1:1)): 1 µg/mL
- MIC (S. marcescens 14981; Serratia marcescens, 14981, Concomitant (ME:SM = 1:2)): 1 µg/mL
- MIC (S. marcescens 14981; Serratia marcescens, 14981, Concomitant (ME:SM = 1:4)): 2 µg/mL
- MIC (S. marcescens 14981; Serratia marcescens, 14981, Concomitant (ME:SM = 2:1)): 0.5 µg/mL
- MIC (S. marcescens 14981; Serratia marcescens, 14981, alone): 8 µg/mL
- MIC (S. marcescens 1944950; Serratia marcescens, 1944950, Concomitant (ME:SM = 1:1)): 8 µg/mL
- MIC (S. marcescens 1944950; Serratia marcescens, 1944950, Concomitant (ME:SM = 1:2)): 8 µg/mL
- MIC (S. marcescens 1944950; Serratia marcescens, 1944950, Concomitant (ME:SM = 1:4)): 16 µg/mL
- MIC (S. marcescens 1944950; Serratia marcescens, 1944950, Concomitant (ME:SM = 2:1)): 4 µg/mL
- MIC (S. marcescens 1944950; Serratia marcescens, 1944950, alone): 32 µg/mL
- MIC (S. marcescens 14991; Serratia marcescens, 14991, Concomitant (ME:SM = 1:1)): 2 µg/mL
- MIC (S. marcescens 14991; Serratia marcescens, 14991, Concomitant (ME:SM = 1:2)): 2 µg/mL
- MIC (S. marcescens 14991; Serratia marcescens, 14991, Concomitant (ME:SM = 1:4)): 4 µg/mL
- MIC (S. marcescens 14991; Serratia marcescens, 14991, Concomitant (ME:SM = 2:1)): 0.5 µg/mL
- MIC (S. marcescens 14991; Serratia marcescens, 14991, alone): 32 µg/mL
- MIC (S. marcescens 2012884; Serratia marcescens, 2012884, Concomitant (ME:SM = 1:1)): 2 µg/mL
- MIC (S. marcescens 2012884; Serratia marcescens, 2012884, Concomitant (ME:SM = 1:2)): 4 µg/mL
- MIC (S. marcescens 2012884; Serratia marcescens, 2012884, Concomitant (ME:SM = 1:4)): 4 µg/mL
- MIC (S. marcescens 2012884; Serratia marcescens, 2012884, Concomitant (ME:SM = 2:1)): 2 µg/mL
- MIC (S. marcescens 2012884; Serratia marcescens, 2012884, alone): 8 µg/mL
- MIC (P. aeruginosa 15040; Pseudomonas aeruginosa, 15040, Concomitant (ME:SM = 1:1)): 4 µg/mL
- MIC (P. aeruginosa 15040; Pseudomonas aeruginosa, 15040, Concomitant (ME:SM = 1:2)): 4 µg/mL
- MIC (P. aeruginosa 15040; Pseudomonas aeruginosa, 15040, Concomitant (ME:SM = 1:4)): 8 µg/mL
- MIC (P. aeruginosa 15040; Pseudomonas aeruginosa, 15040, Concomitant (ME:SM = 2:1)): 2 µg/mL
- MIC (P. aeruginosa 15040; Pseudomonas aeruginosa, 15040, alone): 16 µg/mL
- MIC (P. aeruginosa 12790; Pseudomonas aeruginosa, 12790, Concomitant (ME:SM = 1:1)): 0.063 µg/mL
- MIC (P. aeruginosa 12790; Pseudomonas aeruginosa, 12790, Concomitant (ME:SM = 1:2)): 0.25 µg/mL
- MIC (P. aeruginosa 12790; Pseudomonas aeruginosa, 12790, Concomitant (ME:SM = 1:4)): 0.25 µg/mL
- MIC (P. aeruginosa 12790; Pseudomonas aeruginosa, 12790, Concomitant (ME:SM = 2:1)): 0.016 µg/mL
- MIC (P. aeruginosa 12790; Pseudomonas aeruginosa, 12790, alone): 4 µg/mL
- MIC (P. aeruginosa 12789; Pseudomonas aeruginosa, 12789, Concomitant (ME:SM = 1:1)): 0.5 µg/mL
- MIC (P. aeruginosa 12789; Pseudomonas aeruginosa, 12789, Concomitant (ME:SM = 1:2)): 1 µg/mL
- MIC (P. aeruginosa 12789; Pseudomonas aeruginosa, 12789, Concomitant (ME:SM = 1:4)): 2 µg/mL
- MIC (P. aeruginosa 12789; Pseudomonas aeruginosa, 12789, Concomitant (ME:SM = 2:1)): 0.25 µg/mL
- MIC (P. aeruginosa 12789; Pseudomonas aeruginosa, 12789, alone): 8 µg/mL
- MIC (B. cepacia 14300; Burkholderia cepacia, 14300, Concomitant (ME:SM = 1:1)): 0.5 µg/mL
- MIC (B. cepacia 14300; Burkholderia cepacia, 14300, Concomitant (ME:SM = 1:2)): 1 µg/mL
- MIC (B. cepacia 14300; Burkholderia cepacia, 14300, Concomitant (ME:SM = 1:4)): 1 µg/mL
- MIC (B. cepacia 14300; Burkholderia cepacia, 14300, Concomitant (ME:SM = 2:1)): 0.25 µg/mL
- MIC (B. cepacia 14300; Burkholderia cepacia, 14300, alone): 2 µg/mL
